Columns and labels:
[1] = target: T1, lens aldose reductase (Bos taurus, UniProt P16116); test: in vitro aldose reductase inhibition test (modified Hayman and Kinoshita procedure, enzyme from bovine lens); type: biochemical
T1 construct: preparation of the enzyme from bovine lens; from tissue; host or cells: bovine lens
Experimental: In the present case the procedure of Hayman and Kinoshita is modified in that the final chromatography step is omitted in the preparation of the enzyme from bovine lens.
The following results were obtained when sulindac was evaluated in the above in vitro test: […]

[2] = tested on: galactosaemic rats; test: dulcitol accumulation in lenses and sciatic nerves of galactosaemic rats; type: in vivo, rat; conditions: for Dulcitol Accumulation Sicatic Nerves Percent Decrease / Dulcitol Accumulation Lenses Percent Decrease / Dulcitol Accumulation Sicatic Nerves / Dulcitol Accumulation Lenses: four days
From the text: The aldose reductase inhibiting property of sulindac and its utilization in diminishing and alleviating diabetic complications also are demonstrable in experiments using galactosaemic rats, see D. Dvornik et al., Science, 182, 1146 (1973). Such experiments are exemplified hereinbelow after the listing of the following general comments pertaining to these experiments:
(a) Four or more groups of six male rats, 50-70 g, Sprague-Dawley strain, were used. The first group, the control group, was fed a mixture of laboratory chow (rodent laboratory chow, Purina) and glucose at 20% (w/w %) concentration. The untreated galactosaemic group was fed a similar diet in which galactose is substituted for glucose. The other groups were fed diets containing various amounts of sulindac in the galactose containing diet. The concentration of galactose in the diet of the treated groups was the same as that for the untreated galactosaemic group.
(b) After four days, the animals were killed by decapitation. The eyeballs were removed and punctured with a razor blade; the freed lenses were rolled gently on filter paper and weighed. The sciatic nerves were dissected as completely as possible and weighed. Both tissues were frozen and kept up to two weeks before being analyzed for dulcitol.
(c) The tissues were homoginized in 5% (w/v) trichloroacetic acid and the polyol determination on the extracts was performed by a modification of the procedure of M. Kraml and L. Cosyns, Clin. Biochem., 2, 373 (1969). Only two minor reagent changes were made: (a) The rinsing mixture was an aqueous 5% (w/v) trichloroacetic acid solution and (b) the stock solution was prepared by dissolving 25 mg of dulcitol in 100 ml of an aqueous trichloroacetic acid solution. [N.B.: For each experiment the average value found in the tissue from rats fed the glucose diet was substracted from the individual values found in the corresponding rat tissue to obtain the amount of polyol accumulated].

[3] = Experiment 2, 62 mg/kg/day in diet, p < 0.01

Question: Which results are given for CC1=C(CC(=O)O)c2cc(F)ccc2/C1=C\c1ccc([S+](C)[O-])cc1 (stereo not drawn) [Sulindac, (Z)-5-Fluoro-2-methyl-1-[[4-(methylsulfinyl)phenyl]methylene]-1H-indene-3-acetic acid]?
Answer: inhibition of lens aldose reductase (in words) [1]: potent inhibitor of lens aldose reductase; Percent Inhibition ([1]; concentration 10^-5 Mole/l): 88%; Percent Inhibition ([1]; concentration 10^-6 Mole/l): 60%; Percent Inhibition ([1]; concentration 10^-7 Mole/l): 18%; Dulcitol Accumulation Sicatic Nerves Percent Decrease ([2]; Experiment 1, 31 mg/kg/day in diet, p < 0.001): 39%; Dulcitol Accumulation Lenses Percent Decrease ([2]; Experiment 1, 31 mg/kg/day in diet, t test N.S.): 8%; Dulcitol Accumulation Sicatic Nerves ([2]; Experiment 1, 31 mg/kg/day in galactose diet, untreated 1.67 ± 0.08): 1.02 ± 0.09 µg/mg; Dulcitol Accumulation Lenses ([2]; Experiment 1, 31 mg/kg/day in galactose diet, untreated 12.01 ± 0.38): 11.10 ± 0.28 µg/mg; Dulcitol Accumulation Lenses Percent Decrease ([2]; Experiment 2, 25 mg/kg/day in diet, p < 0.01): 14%; Dulcitol Accumulation Sicatic Nerves Percent Decrease ([2]; Experiment 2, 25 mg/kg/day in diet, t test N.S.): 36%; Dulcitol Accumulation Sicatic Nerves ([2]; Experiment 2, 25 mg/kg/day in galactose diet, untreated 1.30 ± 0.14): 0.83 ± 0.19 µg/mg; Dulcitol Accumulation Lenses ([2]; Experiment 2, 25 mg/kg/day in galactose diet, untreated 12.10 ± 0.30): 10.46 ± 0.32 µg/mg; Dulcitol Accumulation Lenses Percent Decrease ([2]; Experiment 2, 47 mg/kg/day in diet, p < 0.01): 12%; Dulcitol Accumulation Sicatic Nerves Percent Decrease ([2]; Experiment 2, 47 mg/kg/day in diet, p < 0.05): 34%; Dulcitol Accumulation Sicatic Nerves ([2]; Experiment 2, 47 mg/kg/day in galactose diet, untreated 1.30 ± 0.14): 0.85 ± 0.10 µg/mg; Dulcitol Accumulation Lenses ([2]; Experiment 2, 47 mg/kg/day in galactose diet, untreated 12.10 ± 0.30): 10.71 ± 0.22 µg/mg; Dulcitol Accumulation Lenses Percent Decrease [2, 3]: 17%; Dulcitol Accumulation Sicatic Nerves Percent Decrease [2, 3]: 49%; Dulcitol Accumulation Sicatic Nerves ([2]; Experiment 2, 62 mg/kg/day in galactose diet, untreated 1.30 ± 0.14): 0.67 ± 0.04 µg/mg; Dulcitol Accumulation Lenses ([2]; Experiment 2, 62 mg/kg/day in galactose diet, untreated 12.10 ± 0.30): 10.06 ± 0.43 µg/mg; accumulation of dulcitol in the lenses and sciatic nerves of rats fed galactose (in words) ([2]; as compared to an untreated animal): diminishes and alleviates the accumulation of dulcitol

From patent US4307114A, “Aldose reductase inhibition by (Z)-5-fluoro-2-methyl-1-[[4-(methylsulfinyl)phenyl]methylene]-1H-indene- 3-acetic acid” (Ayerst, McKenna & Harrison, Inc., priority 1980, dated 1981)
